Source: US20070219180A1, “Muscle Relaxtion Accelerator and Therapeutic Agent for Muscular Tissue Diseases Such as Muscle Relaxation Failure” (priority 2004, published 2007)

Test system: binding of troponin I to the actin-tropomyosin complex
Test: Experiment 4 and comparison example: co-precipitation (binding) of troponin I with the actin-tropomyosin complex in the presence of EGTA
Design: species or system swine
Conditions: for Precipitate of troponin I (ratio to the sample without drug): 10 mM EGTA, 100,000×g 120 min 25° C.
Protocol: The actin-tropomyosin complex and the troponin C-I complex are usually detected by analyzing the precipitate obtained by ultracentrifugation of a mixture containing the actin-tropomyosin complex and the troponin C-I complex for 120 minutes at 100,000×g at 25° C. The binding of the troponin C-I complex to the actin-tropomyosin complex in muscle tissues can be confirmed by the detected actin-tropomyosin complex and the detected troponin C-I complex. For example, when a mixture containing the actin-tropomyosin complex and the troponin C-I complex is ultracentrifuged in the presence of EGTA as a calcium chelating agent (in other words, in the absence of calcium ions), the actin-tropomyosin complex and the troponin C-I complex combine each other to precipitate together. Detection of troponin I in the precipitate using SDS-gel electrophoresis allows confirmation that the precipitate contains a complex formed by the actin-tropomyosin complex and the troponin C-I complex.
A precipitate due to binding of the actin-tropomyosin complex and troponin I is usually not formed when a mixture containing the actin-tropomyosin complex, troponin and propranolol (a β-blocker) used as a therapeutic agent for heart failure is ultracentrifuged at 100,000×g for 120 minutes 25° C.
Swine muscle-derived actin, chicken gizzard-derived tropomyosin and swine myocardium-derived troponin used in this experiment were purchased from Sigma-Aldrich Corporation, and other unspecified reagents used in this experiment were purchased from Wako Pure Chemical Industries Ltd.
A 500 μl sample was prepared by adding 4.2 μg of actin, 2.1 μg of tropomyosin and 14 μg of troponin to 500 μl of a reaction solution containing 60 mM KCl, 20 mM MOPS (3-morpholinopropanesulfonic acid), 2 mM of MgCl2, 0.05 μg of pepstatin A, and 15 mM 2-mercaptoethanol. After centrifugation of this sample at 2,000×g for 10 minutes at 25° C., the precipitate was removed and the resulting supernatant was distributed to separate test tubes containing 10 mM of EGTA, and each tube was determined as a test sample.
Each test sample was reacted for 120 minutes at 25° C. and centrifuged at 100,000×g for 120 minutes at 25° C., and the supernatants were removed. After reaction solution was gently added to the removed precipitate so as not to suspend the precipitate, the precipitate was again removed by suction, washed, and determined as a test precipitate.
A sample buffer for polyacrylamide gel electrophoresis (SDS-PAGE) was added to each washed test precipitate and mixed well to suspend the test precipitate. The resulting suspension was electrophoresized on a gel (PAG MINI “No. 1” 10/20) for about 1 hour at 40 mA. After electrophoresis, the suspension was silver-stained using “Daiichi” 2D-silver staining reagent (Daiichi Pure Chemicals Co., Ltd), and washed with distilled water and dried. The amount of precipitate in each silver-stained protein band obtained by gel electrophoresis was quantitated using a densitometer.
The amounts of precipitate of troponin I in the second to fifth test precipitates were calculated as ratios of the amount of precipitate of troponin I in the first test precipitate, which was obtained without the compound (the concentration of the compound was 0 M).
The affinity of troponin I for the actin-tropomyosin complex was measured using the same method as in Experiment 4, but using propranolol (a β-blocker which is used as a therapeutic agent for heart failure) for comparison with the compound in the invention.
A 500 μl sample was prepared by adding 4.2 μg of actin, 2.1 μg of tropomyosin and 14 μg of troponin I to 500 μl of a reaction solution containing 60 mM KCl, 20 mM MOPS (3-morpholinopropanesulfonic acid), 2 mM MgCl2, 0.05 μg of pepstatin A, and 15 mM 2-mercaptoethanol. […]

## CC(C)NCC(O)COc1cccc2ccccc12 (centres unmarked) [Propranolol, propranolol]
Drug concentration 10^−4 mol
  Precipitate of troponin I (ratio to the sample without drug): 1.1
Drug concentration 10^−5 mol
  Precipitate of troponin I (ratio to the sample without drug): 0.9
Drug concentration 10^−6 mol
  Precipitate of troponin I (ratio to the sample without drug): 1.1
Drug concentration 10^−7 mol
  Precipitate of troponin I (ratio to the sample without drug): 0.9
Ultracentrifugation 100,000×g, 120 minutes, 25° C.
  Effect on the bonding strength of troponin I to the actin-tropomyosin complex (co-precipitation): does not enhance the bonding strength of troponin to the actin-tropomyosin complex
